Converted amounts (≈) assume the structure as drawn. The source made the active and inactive calls. No cut-off for these calls is given here.
Tested on: Trypanosoma cruzi
Test: Antiparasitic activity against epimastigotes of Trypanosoma cruzi assessed as inhibition of parasite proliferation
Type: functional, organism-based
Conditions: not given

IC50	SMILES
Not Active	CC(C)=C1CC[C@@H](C)[C@]2(C[C@@H](c3ccoc3)OC2=O)[C@H]1CCC(=O)OC(C)(C)C
Not Active	COC(=O)CC[C@@H]1[C@@]2(C[C@@H](c3ccoc3)OC2=O)[C@H](C)CC[C@@]12OC2(C)C
Not Active	CC(C)=C1CC[C@@H](C)[C@]2(C[C@@H](c3ccoc3)OC2=O)[C@H]1CCN=C=O

Same assay, conditions: Trypanosoma cruzi; read-out: IC50

IC50 [µg/mL]	SMILES
4 (≈ 10.4 µM)	CC(C)=C1CC[C@@H](C)[C@]2(C[C@@H](c3ccoc3)OC2=O)[C@H]1CCNC(=O)N=[N+]=[N-]
7 (≈ 17.1 µM)	CC(C)=C1CC[C@@H](C)[C@]2(C[C@@H](c3ccoc3)OC2=O)[C@H]1CCc1cc(O)ccc1O
2 (≈ 4.79 µM)	CC(C)=C1CC[C@@H](C)[C@]2(C[C@@H](c3ccoc3)OC2=O)[C@H]1CCNC(=O)OC(C)(C)C
2 (≈ 4.9 µM)	CC(C)=C1CC[C@@H](C)[C@]2(C[C@@H](c3ccoc3)OC2=O)[C@H]1CCC1=CC(=O)C=CC1=O
5 (≈ 14.5 µM)	C=C(C)[C@]12CC[C@@H](C)[C@]3(C[C@@H](c4ccoc4)OC3=O)[C@H]1CCC(=O)O2
5 (≈ 7.57 µM)	CC(C)=C1CC[C@@H](C)[C@]2(C[C@@H](c3ccoc3)OC2=O)[C@H]1CCNC(=O)NCC[C@H]1C(=C(C)C)CC[C@@H](C)[C@]12C[C@@H](c1ccoc1)OC2=O
2 (≈ 5.77 µM)	CC(C)=C1CC[C@@H](C)[C@]2(C[C@@H](c3ccoc3)OC2=O)[C@H]1CCC(=O)O

SMILES	IC50 [µg/mL]
O=C(Cn1ccnc1[N+](=O)[O-])NCc1ccccc1 [BENZNIDAZOLE]	2.5 (≈ 9.61 µM)

Tested on: Trypanosoma cruzi
Test: Antiparasitic activity against epimastigotes of Trypanosoma cruzi assessed as inhibition of parasite proliferation at 1 to 10 ug/ml
Type: functional, organism-based
Conditions: not given

SMILES	inhibition
CC(C)=C1CC[C@@H](C)[C@]2(C[C@@H](c3ccoc3)OC2=O)[C@H]1CCC(=O)O	Active

— ChEMBL document CHEMBL2417438, “Preparation and antitrypanosomal activity of secochiliolide acid derivatives” (Bioorg Med Chem Lett, 2013)
